The target of the assay is Mitogen-activated protein kinase 1 (Homo sapiens) (UniProt P28482). Briefly: phospho-ERK1/2 level reduction in colorectal cells, late-stage follow-up, counter-screen for KLF5 inhibitor project, SW620 cells, chemiluminescent western blot, powder samples (AID 588668). Conditions: phospho-ERK1/2 western blot, 24 h, at 10 µM. A general note: Counterscreens check selectivity or assay interference.
Sequence of Mitogen-activated protein kinase 1 (Homo sapiens) (P28482 whole entry, looked up): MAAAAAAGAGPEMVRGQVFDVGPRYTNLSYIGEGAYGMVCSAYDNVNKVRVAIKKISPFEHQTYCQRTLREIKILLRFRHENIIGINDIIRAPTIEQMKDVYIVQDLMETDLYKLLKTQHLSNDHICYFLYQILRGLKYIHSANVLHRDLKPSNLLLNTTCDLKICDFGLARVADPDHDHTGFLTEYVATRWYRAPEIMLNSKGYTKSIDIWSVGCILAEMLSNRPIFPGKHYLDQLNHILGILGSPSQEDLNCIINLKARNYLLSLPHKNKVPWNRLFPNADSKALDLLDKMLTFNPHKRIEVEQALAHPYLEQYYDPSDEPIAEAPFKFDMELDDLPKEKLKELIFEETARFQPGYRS

Consider `CN(C(=O)CNC(=O)/C=C/c1cccc(Cl)c1)C1CCS(=O)(=O)CC1`, for which the phospho-ERK1/2 inhibition (% vs DMSO), active compounds read high is 48.2%.

As to `CN(C(=O)COC(=O)/C=C/c1cccc([N+](=O)[O-])c1)C1CCS(=O)(=O)C1` (stereo not drawn), the phospho-ERK1/2 inhibition (% vs DMSO), active compounds read high was 35.6%.

As to `CN(C(=O)CNC(=O)/C=C/c1cccc(Cl)c1)C1CCS(=O)(=O)C1` (stereo not drawn), the phospho-ERK1/2 inhibition (% vs DMSO), active compounds read high was 31.3%.

These data come from PubChem BioAssay AID588668 (The Scripps Research Institute Molecular Screening Center, 2011).
